# Reference: patent US11471502B2, “Neuroprotective peptide” (UNIVERSITY COLLEGE CARDIFF C[…], priority 2017, dated 2022)
# “Also recorded” adds a separate entry of the source.
# Columns and labels:
# zQ175 mice = assay: Nose poke training (FR1) in 9-hole operant boxes, zQ175 model of Huntington's Disease; assay type: in vivo, mouse
# Protocol: WT and zQ175 mice underwent daily 20 minutes nose poke training for 10 consecutive days (days 1-10) on a simple fixed ratio (FR1) schedule of reinforcement. Starting from day 11 mice received one administration of RB5 (20 mg/kg. i.p.) 1 h before the nose poke training. […] White star P<0.0001.
# Operant testing was conducted in 16 9-hole operant boxes. Each operant box contains a horizontal array of nine holes with infrared beams localised to the front of each hole to detect nose pokes. A peristaltic pump delivers liquid reinforcement (strawberry milk) into a magazine at the front of the box.
# A week before starting the training, mice undergo water restriction for 18 hours/day and are kept under this regimen throughout the experimental procedures. Mice are taught to nose poke on a simple fixed ratio (FR1) schedule of reinforcement: to obtain reward, mice are required to respond to a stimulus light in the central hole via a single nose poke. Mice are trained daily on this program during 20 minutes sessions for 10 days (training phase). Once trained, animals were subdivided in 4 groups and injected with RB5 or scramble (10 mg/kg, i.p.) peptides 1 hour before being tested on FR1 schedule for other 9 days.
# [1] = biological target: phospho p44/p42 MAP kinase; assay: Dose response curve of RB5 for ERK activation in striatal slices; assay type: cell-based, mouse; conditions: 200 μm striatal slices, 1 h pre-treatment; read-out: EC50 for enhancing pERK (phospho-ERK positive cells)
# Protocol: a) RB5 peptide selectively promoted activation of ERK2. Acute striatal slices either pre-treated with Scramble (SCR) or RB5 peptide (50 μM) and then stimulated 10 minutes with glutamate (GLU) (100 μM) or vehicle were analysed in Western blot (left panel) and probed with anti phospho ERK antibodies (p44^ERK1 and p42^ERK2) and anti ERK1/2 antibody. GAPDH was used as loading control. […] No changes were detected in the total ERK1 and ERK2 levels. GAPDH was used as loading control. […] Mice injected with a single dose of CPP-SCR or CPP-RB5 peptides (20 mg/kg, i.p.) were rapidly perfused 1 h later and brains were dissected and further analysed for IHC and immunofluorescence. Representative photomicrographs of pERK1/2, pMSK, pAch3, pELK1 and c-Fos expression in the striatum. […] Two-way ANOVA Bonferroni post hoc comparison: one black star, p<0.05, two black stars, p<0.01, one white star, p<0.001. p) Dose response curve of RB5 peptide for ERK activation. 200 μm thick striatal slices were freshly prepared from 2-month old mice and transferred into a perfusion chamber for 1 h at 32° C. Slices were pre-treated with different doses of RB5 or scrambled control. After 1 h, slices for each dose was fixed in PFA 4% for 15 min. […] Neuronal quantification was performed with ImageJ software by counting the number of phospho-ERK positive cells in each slice. […] The EC50 was calculated using GraphPad Prism software.
# HdhQ111 mice = assay: HdhQ111 genetic mouse model of Huntington's disease; assay type: in vivo
# Protocol: WT and HdhQ111 mice were treated with CPP-RB5 or Scramble (CPP-SCR) peptides (20 mg/kg i.p.) for 8 days.
# Two-way ANOVA Bonferroni post-hoc comparison ***p<0.001.
# HdhQ111 heterozygous mice (Jax®, Bar Harbour, Me., U.S.A.), zQ175 knock-in heterozygous (mix sex) carrying between 180 and 195 CAG repeats (CHDI-81003003, Psychogenics, Inc. Tarrytown, N.Y.) and Tg2576 transgenic male mice (C57BL6 and SLJ mix background, Taconic Biosciences) were used for IHC, IF and behavioural test.
# We also evaluated the potential neuroprotective effect of RB5, in hdhQ111 transgenic mice, a late onset genetic model of Huntington's Disease. hdhQ111 mice were treated (20 mg/kg, i.p., twice a day) for 7 days (FIG. 5).
# [2] = tested on: phospho-p44/p42 MAP kinase (Thr202/Tyr204); assay: In vivo time course and dose response of ERK activation in dorsal striatum; set-up: species or system mouse; conditions: dorsal striatum
# Protocol: (§1) Mice injected with RB5 were perfused at different time points, whereas scramble-injected mice were perfused after 1 hour. Immunohistochemical analysis was carried out against phospho-p44/p42 MAP kinase (Thr202/Tyr204). […] One-way ANOVA F5,29=9.137, p<0.0001. Bonferroni's post-hoc test, SCR vs RB5 1 h: p<0.001, SCR vs RB5 6 h: p<0.001. […] Immunohistochemical analysis was carried out against phospho-p44/p42 MAP kinase (Thr202/Tyr204). […] One-way ANOVA: F5,29=7.097, p<0.001. Bonferroni's post-hoc test, SCR vs RB5 20 mg/kg: p<0.05, SCR vs RB5 10 mg/kg: p<0.01. Data are expressed as Mean±SEM. c) RB5 brain levels measured with mass spectrometry at different hours after a single i.p. administration of 20 mg/kg. High levels of RB5 were detected up to 6 hrs (one-way ANOVA, F4,18=17.469, P<0.0001, Bonferroni's post-hoc, SCR vs RB5 1 h P<0.01, SCR vs RB5 3 h P<0.0001, SCR vs RB5 6 h P<0.05). […] White star P<0.0001, P<0.001, P<0.01, P<0.05.
# (§2) 1 h after CPP-RB5/CPP-SCR (20 mg/kg, i.p.) mice were anaesthetized and perfused via intracardiac infusion of ice-cold 4% PFA. Brains were rapidly extracted, post-fixed overnight and transferred to 25% buffered sucrose for 24 h. Coronal sections were cut at 30 μm thickness on a freezing microtome and stored in a cryoprotective solution at −20° C. until they were processed for immunohistochemistry. Free-floating sections were incubated with primary antibodies against anti-phospho-p44/42 MAP kinase (Thr202/Tyr204), anti-phospho-Elk-1 (Ser383), anti-phospho-Kv4.2 (Thr607)-R, anti-phospho-MSK-1, anti-phospho-MEK-1, c-Fos and Tyrosine Hydroxylase overnight at 4° C. Sections were then incubated with biotinylated goat anti-rabbit IgG (1:200, Vector Labs) for 2 h. Detection of the bound antibodies was carried out using a standard peroxidase-based method (ABC-kit, Vectastain, Vector Labs), followed by a DAB and H2O2 solution. Quantification of positive neurons were counted from striatum in 2-3 sections per mouse, bilaterally. Sample areas were visualized under a 20× objective in a Leica DM IRB microscope by a blind investigator to condition and counts per region were averaged across the sections using the ImageJ software.
# [3] = as above; set-up: species or system mouse; conditions: mouse, in vivo, ip; 20 mg/kg i.p.; read-out: estimated half-life (of RB5 activity on pERK in brain) (converted)
# Protocol: as §1, §2
compound,measurement,setting,value
CSCC[C@H](NC(=O)[C@H](CCC(=O)O)NC(=O)[C@@H](NC(=O)[C@H](CCC(=O)O)NC(=O)CNC(=O)[C@@H]1CCCN1C(=O)[C@@H](NC(=O)CNC(=O)[C@@H]1CCCN1C(=O)CNC(=O)[C@@H](NC(=O)CNC(=O)[C@H](CCC(=O)O)NC(=O)[C@@H](NC(=O)[C@H](CCCNC(=N)N)NC(=O)[C@H](CCCNC(=N)N)NC(=O)[C@@H]1CCCN1C(=O)[C@H](CCC(=O)O)NC(=O)CNC(=O)CNC(=O)CNC(=O)CNC(=O)CNC(=O)[C@H](CCC(N)=O)NC(=O)[C@@H]1CCCN1C(=O)[C@@H]1CCCN1C(=O)[C@H](CCCNC(=N)N)NC(=O)[C@H](CCCNC(=N)N)NC(=O)[C@H](CCCNC(=N)N)NC(=O)[C@H](CCC(N)=O)NC(=O)[C@H](CCCNC(=N)N)NC(=O)[C@H](CCCNC(=N)N)NC(=O)[C@H](CCCCN)NC(=O)[C@H](CCCCN)NC(=O)[C@H](CCCNC(=N)N)NC(=O)CNC(C)=O)[C@@H](C)O)C(C)C)C(C)C)C(C)C)C(=O)N[C@H](C(=O)N[C@@H](CCCCN)C(=O)NCC(=O)N[C@@H](CCC(N)=O)C(=O)N1CCC[C@H]1C(=O)N[C@@H](Cc1ccccc1)C(=O)N[C@@H](CC(=O)O)C(=O)N[C@@H](C(=O)O)C(C)C)C(C)C [RB5],nose poke performances / responses,"zQ175 mice; WT and zQ175 female mice, 9 days of RB5 treatment",significant enhancement of the responses; also recorded: improved performances
same,nose poke responding,"zQ175 mice; zQ175 female mice, 20 mg/kg i.p. 1 h before training from day 11",significantly improved
same,EC50,[1],3.4 µM
same,degeneration in the hdhQ111 mutants,"HdhQ111 mice; 20 mg/kg i.p. twice a day, 7 days",prevents degeneration
same,ERK activation (pERK) in striatum,"HdhQ111 mice; 20 mg/kg i.p., 8 days",elevated pERK in WT and mutant striata; also recorded: significant enhancement of ERK activation
same,"apoptotic cells (TUNEL, dorsal striatum)","HdhQ111 mice; HdhQ111 mice, 20 mg/kg i.p., vs Scramble",significant reduction of apoptotic cells
same,pre-apoptotic state (Cleaved Caspase-3),"HdhQ111 mice; hdhQ111 mice, 20 mg/kg i.p.",significant reduction of pre-apoptotic state
same,time after injection at which phospho-ERK returned to basal levels,[2]; 20 mg/kg i.p.,12 h
same,time after injection up to which phospho-ERK levels / RB5 activity remained increased,[2]; 20 mg/kg i.p.,up to 6 h
same,pERK dose response,"[2]; different doses i.p., 1 hour after injection",both 20 and 10 mg/kg (i.p.) doses are able to elevate pERK; also recorded: dose-dependent manner
same,half-life,[3],9 h
